Results from patent publication US11220482B2, “Aminopyridinemethanol compounds and their use” (UNIVERSITE AMIENS PICARDIE JULES VERNE, priority 2017, dated 2022).
Where two headings read alike, the source gives them in different places.

Assays:
[1] = tested on: Plasmodium falciparum 3D7; experiment: Plasmodium falciparum susceptibility assay, first round (SYBR Green I); assay type: cell-based; details: 3D7, first round, 48-h incubation, strain susceptible to CQ, decreased susceptibility to MQ, read-out: IC50 (nM) Plasmodium falciparum 3D7 (converted)
Plasmodium falciparum W2 = experiment: as above; assay type: cell-based; details: W2, first round, 48-h incubation, strain resistant to CQ, sensitive to MQ, read-out: IC50 (nM) Plasmodium falciparum W2 (converted)
CHO-K1 cells [2] = experiment: In vitro micronucleus assay, short-term exposure; details: for MNC-M (mean of micronucleated cell rates): Chinese hamster, 3 h
Experimental: All the assays were conducted in duplicate. The CHO-K1 cells, suspended in McCoy's 5A medium, were transferred into Labteck wells at a concentration of 100,000 cells/mL, and incubated for 24 hours at 37° C. in CO2 (5%).
When the test was performed without metabolic activation, the test substances were added into cell cultures at concentrations previously defined.
When the assay was performed in the presence of metabolic activation, S9 mix metabolizing mixture was added to cell cultures at a concentration of 10%. Then the test substances were added to the cell cultures at concentrations previously defined.
After 3 hours of incubation at 37° C. in CO2 (5%), the culture medium was removed, the cells were rinsed with phosphate buffered saline (PBS), and then returned to culture in McCoy's 5A medium containing […] of cytochalasin B. After a 21-hour incubation period at 37° C., cells were rinsed with phosphate buffered saline (PBS), fixed with methanol and stained with 10% Giemsa for 20 minutes.
(§1) The analysis of results was performed under a microscope at ×1000 magnification. The antiproliferative activity of test substances was estimated by counting the number of binucleated cells relative to the number of mononucleated cells on a total of 500 cells for each dose (250 cells counted per well). The proliferation index (Cytokinesis Blocked Proliferative Index CBPI) was calculated using the following formula:
(§2) The cytostasis index (CI %), i.e. the percentage of cell replication inhibition, was calculated using the following formula: CI %−100−{100×(CBPItest material−1)/(CBPIsolvent control−1)}
(§3) The rates of micronuclei were evaluated for the presence of independent nuclear core entities in 1000 binucleated cells per well, which corresponds to 2000 cells examined by test substance dose. Micronuclei were identified as small nuclei well differentiated from cell nucleus, stained in the same manner and having a diameter less than one third of that of the cell nucleus.
(§4) Micronuclei rates obtained for different doses of test substances were compared to the negative control by a χ2 test. The assay was considered positive if: • A dose-response relationship was obtained between the rate of micronuclei and the doses tested, • At least one of these doses induced a statistically significant increase (P<0.05) in the number of micronucleated cells as compared to the negative control.

CHO-K1 cells [3] = details: Chinese hamster, 24 h
Experimental: All the assays were conducted in duplicate. The CHO-K1 cells, suspended in Mac Coy's 5A medium, were transferred into Labteck wells at a concentration of 100,000 cells/mL, and incubated for 24 hours at 37° C. in CO2 (5%).
The test was performed without metabolic activation: the test substances were added into cell cultures at concentrations previously defined. […] After 24 hours of incubation at 37° C. in CO2 (5%), the culture medium was removed, the cells were rinsed with phosphate buffered saline (PBS), and then returned in culture medium containing […] of cytochalasine B. After a 24-hour incubation period at 37° C., cells were rinsed with phosphate buffered saline (PBS), fixed with methanol and stained with 10% Giemsa for 20 minutes.
as §1, §2, §3, §4

Salmonella strains = experiment: Bacterial reverse mutation assay (Ames test), overall conclusion; assay type: cell-based, S. typhimurium; details: all tested doses, absence or presence of the metabolizing mixture
Experimental: Five strains of S. typhimurium were used. […] An additional strain has been chosen to detect cross-linking mutagens, hydrazines and oxidative agents: TA102, which have an AT base pair at the primary reversion site. Salmonella tester strains were gifts from Prof. B. N. Ames (Berkeley, Calif., USA). They were stored at −80° C. and regularly checked for genetic markers.
Few crystals of the frozen working strains were taken with a sterile pipette, and seeded in 10 mL of nutrient broth (NB No 2, Oxoid). Strains were grown overnight at 37° C. with shaking in Nutrient Broth No. 2, with ampicillin (25 μg/mL) for TA1535, TA97a, TA98, and TA 100, or ampicillin (25 μg/mL) plus tetracyclin (2 μg/mL) for TA 102. At the end of the incubation period, 0.1 mL of each overnight culture was mixed to 0.1 mL S9 Mix or 0.1 mL phosphate-buffered saline (PBS, pH 7.4) in 5 mL plastic tubes and various volumes of the tested samples were added to the mixtures. Each experiment included triplicate plates of four tested doses. A solvent (DMSO, 10 μL) control was added to determine the spontaneous frequency of revertants (quadruple plates). Five positive controls were also included to ensure the performance of the tester strains and the S9 Mix. […] After hardening, the plates were incubated at 37° C. for 48 hours.
At the end of the incubation period, revertants were counted with a laser colony counter equipped with a bacterial enumeration program (Spiral System Instrument Inc., Bethesda, Md., USA).
The Dunnett test was performed to determine a significant difference between the mean number of induced revertants and the mean number of spontaneous revertants.

S. typhimurium TA98 = experiment: Bacterial reverse mutation assay (Ames test)
[4] = Table 18 second section, "Test without S9 mix", 0.4 μg/plate
[5] = Table 18 second section, "Test without S9 mix", 0.6 μg/plate
[6] = Table 18 second section, "Test without S9 mix", 0.8 μg/plate
[7] = Table 18 second section, "Test without S9 mix", 1 μg/plate

CCCCCNC[C@@H](O)c1cc(-c2ccc(C(F)(F)F)cc2)nc(C(F)(F)F)c1 [Compound 1a]
IC50 [1]: 52.4 ± 1.7 nM
IC50 (Plasmodium falciparum W2): 8.6 ± 1 nM
in vitro micronucleus assay result (clastogenic and/or aneugenic activities) (CHO-K1 cells [2]): negative results
MNC-M (mean of micronucleated cell rates) (CHO-K1 cells [2]; 10 μM): 9.5 ± 0.7 ‰
MNC-M (mean of micronucleated cell rates) (CHO-K1 cells [2]; 50 μM): 10 ± 1.4 ‰
MNC-M (mean of micronucleated cell rates) (CHO-K1 cells [2]; 100 μM): 11 ± 1.4 ‰
BI (binucleated cells) (CHO-K1 cells [3]; 5 μM): 417
CBPI (Cytokinesis-Blocked Proliferative Index) (CHO-K1 cells [3]; 5 μM): 1.83
CI % (cytostasis index) (CHO-K1 cells [3]; 5 μM): 8%
MNC1 (micronucleated cell rate) (CHO-K1 cells [3]; 5 μM): 10 ‰
MNC2 (micronucleated cell rate) (CHO-K1 cells [3]; 5 μM): 9 ‰
MNC-M (mean of micronucleated cell rates) (CHO-K1 cells [3]; 5 μM): 9.5 ± 0.7 ‰
MONO (mononucleated cells) (CHO-K1 cells [3]; 5 μM): 83
BI (binucleated cells) (CHO-K1 cells [3]; 10 μM): 323
CBPI (Cytokinesis-Blocked Proliferative Index) (CHO-K1 cells [3]; 10 μM): 1.64
CI % (cytostasis index) (CHO-K1 cells [3]; 10 μM): 29%
MNC1 (micronucleated cell rate) (CHO-K1 cells [3]; 10 μM): 9 ‰
MNC2 (micronucleated cell rate) (CHO-K1 cells [3]; 10 μM): 11 ‰
MNC-M (mean of micronucleated cell rates) (CHO-K1 cells [3]; 10 μM): 10 ± 1.4 ‰
MONO (mononucleated cells) (CHO-K1 cells [3]; 10 μM): 177
BI (binucleated cells) (CHO-K1 cells [3]; 50 μM): 226
CBPI (Cytokinesis-Blocked Proliferative Index) (CHO-K1 cells [3]; 50 μM): 1.46
CI % (cytostasis index) (CHO-K1 cells [3]; 50 μM): 52%
MNC1 (micronucleated cell rate) (CHO-K1 cells [3]; 50 μM): 10 ‰
MNC2 (micronucleated cell rate) (CHO-K1 cells [3]; 50 μM): 12 ‰
MNC-M (mean of micronucleated cell rates) (CHO-K1 cells [3]; 50 μM): 11 ± 1.4 ‰
MONO (mononucleated cells) (CHO-K1 cells [3]; 50 μM): 274
mutagenic activity in Salmonella strains (revertant rates) (Salmonella strains): No significant increase in revertant rates
Number of revertants by plate (Means ± SD), TA1535 (S. typhimurium TA1535; [4]): 29 ± 8^NS
Number of revertants by plate (Means ± SD), TA1535 (S. typhimurium TA1535; [5]): 29 ± 9^NS
Number of revertants by plate (Means ± SD), TA1535 (S. typhimurium TA1535; [6]): 32 ± 8^NS
Number of revertants by plate (Means ± SD), TA1535 (S. typhimurium TA1535; [7]): 27 ± 4^NS
Number of revertants by plate (Means ± SD), TA1535 (S. typhimurium TA1535; without S9 mix, 0.4 μg/plate): 25 ± 6^NS
Number of revertants by plate (Means ± SD), TA1535 (S. typhimurium TA1535; without S9 mix, 0.6 μg/plate): 30 ± 5^NS
Number of revertants by plate (Means ± SD), TA1535 (S. typhimurium TA1535; without S9 mix, 0.8 μg/plate): 31 ± 4^NS
Number of revertants by plate (Means ± SD), TA1535 (S. typhimurium TA1535; without S9 mix, 1 μg/plate): 26 ± 6^NS
Number of revertants by plate (Means ± SD), TA97a (S. typhimurium TA97a; [4]): 128 ± 8^NS
Number of revertants by plate (Means ± SD), TA97a (S. typhimurium TA97a; [5]): 133 ± 4^NS
Number of revertants by plate (Means ± SD), TA97a (S. typhimurium TA97a; [6]): 147 ± 10^NS
Number of revertants by plate (Means ± SD), TA97a (S. typhimurium TA97a; [7]): 151 ± 6^NS
Number of revertants by plate (Means ± SD), TA97a (S. typhimurium TA97a; without S9 mix, 0.4 μg/plate): 161 ± 8^NS
Number of revertants by plate (Means ± SD), TA97a (S. typhimurium TA97a; without S9 mix, 0.6 μg/plate): 155 ± 6^NS
Number of revertants by plate (Means ± SD), TA97a (S. typhimurium TA97a; without S9 mix, 0.8 μg/plate): 159 ± 8^NS
Number of revertants by plate (Means ± SD), TA97a (S. typhimurium TA97a; without S9 mix, 1 μg/plate): 154 ± 9^NS
Number of revertants by plate (Means ± SD), TA100 (S. typhimurium TA100; [4]): 185 ± 8
Number of revertants by plate (Means ± SD), TA100 (S. typhimurium TA100; [5]): 183 ± 7^NS
Number of revertants by plate (Means ± SD), TA100 (S. typhimurium TA100; [6]): 172 ± 6^NS
Number of revertants by plate (Means ± SD), TA100 (S. typhimurium TA100; [7]): 177 ± 4^NS
Number of revertants by plate (Means ± SD), TA100 (S. typhimurium TA100; without S9 mix, 0.4 μg/plate): 189 ± 8
Number of revertants by plate (Means ± SD), TA100 (S. typhimurium TA100; without S9 mix, 0.6 μg/plate): 192 ± 9^NS
Number of revertants by plate (Means ± SD), TA100 (S. typhimurium TA100; without S9 mix, 0.8 μg/plate): 215 ± 13^NS
Number of revertants by plate (Means ± SD), TA100 (S. typhimurium TA100; without S9 mix, 1 μg/plate): 196 ± 14^NS
Number of revertants by plate (Means ± SD), TA102 (S. typhimurium TA102; [4]): 387 ± 8^NS
Number of revertants by plate (Means ± SD), TA102 (S. typhimurium TA102; [5]): 395 ± 9^NS
Number of revertants by plate (Means ± SD), TA102 (S. typhimurium TA102; [6]): 379 ± 8^NS
Number of revertants by plate (Means ± SD), TA102 (S. typhimurium TA102; [7]): 378 ± 5^NS
Number of revertants by plate (Means ± SD), TA102 (S. typhimurium TA102; without S9 mix, 0.4 μg/plate): 319 ± 12^NS
Number of revertants by plate (Means ± SD), TA102 (S. typhimurium TA102; without S9 mix, 0.6 μg/plate): 308 ± 10^NS
Number of revertants by plate (Means ± SD), TA102 (S. typhimurium TA102; without S9 mix, 0.8 μg/plate): 325 ± 13^NS
Number of revertants by plate (Means ± SD), TA102 (S. typhimurium TA102; without S9 mix, 1 μg/plate): 318 ± 10^NS
Number of revertants by plate (Means ± SD), TA98 (S. typhimurium TA98; [4]): 28 ± 3^NS
Number of revertants by plate (Means ± SD), TA98 (S. typhimurium TA98; [5]): 25 ± 5^NS
Number of revertants by plate (Means ± SD), TA98 (S. typhimurium TA98; [6]): 31 ± 6^NS
Number of revertants by plate (Means ± SD), TA98 (S. typhimurium TA98; [7]): 25 ± 3^NS
Number of revertants by plate (Means ± SD), TA98 (S. typhimurium TA98; without S9 mix, 0.4 μg/plate): 30 ± 4^NS
Number of revertants by plate (Means ± SD), TA98 (S. typhimurium TA98; without S9 mix, 0.6 μg/plate): 28 ± 8^NS
Number of revertants by plate (Means ± SD), TA98 (S. typhimurium TA98; without S9 mix, 0.8 μg/plate): 31 ± 6^NS
Number of revertants by plate (Means ± SD), TA98 (S. typhimurium TA98; without S9 mix, 1 μg/plate): 24 ± 5^NS
